This passage reports IC50 results from patent publication US7709513B2, “Benzooxazol-2-one derivatives as lipase and phospholipase inhibitors” (Sanofi-Aventis, priority 2005, dated 2010).

A word on the IC50: it is the concentration at which inhibition is half-maximal.

This assay addresses T1, endothelial lipase (EL) (Homo sapiens, UniProt Q9Y5X9).
T1 construct: made in house; host or cells: recombinant cell lines (CHO, HEK293); concentrated conditioned medium used as enzyme solution
T1 sequence (Q9Y5X9 21-500): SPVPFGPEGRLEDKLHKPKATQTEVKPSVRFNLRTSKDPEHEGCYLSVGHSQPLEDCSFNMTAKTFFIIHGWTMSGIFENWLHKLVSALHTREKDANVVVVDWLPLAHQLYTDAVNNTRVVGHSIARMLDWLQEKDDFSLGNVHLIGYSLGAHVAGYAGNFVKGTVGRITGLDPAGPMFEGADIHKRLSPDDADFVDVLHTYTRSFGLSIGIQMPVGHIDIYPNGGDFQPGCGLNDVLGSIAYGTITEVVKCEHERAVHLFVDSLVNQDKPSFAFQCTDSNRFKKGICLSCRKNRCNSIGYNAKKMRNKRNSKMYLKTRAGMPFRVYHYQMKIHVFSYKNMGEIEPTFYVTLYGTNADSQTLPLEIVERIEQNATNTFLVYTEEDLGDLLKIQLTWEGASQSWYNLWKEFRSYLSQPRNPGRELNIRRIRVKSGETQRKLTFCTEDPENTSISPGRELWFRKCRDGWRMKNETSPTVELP
Put plainly: Further EL inhibition assay. The class given is biochemical. The note with it: Bodipy-labelled phospholipid substrate, 37° C., 90 minutes, HPTLC fluorescence readout; EL from conditioned medium of recombinant cell lines (CHO, HEK293). The source says:
EL is released as secretory protein in high concentration into cell culture medium (conditioned medium) by recombinant cell lines (CHO, HEK293). This is employed as enzyme solution after concentration.
The phospholipase-specific substrate 1,2-bis(4,4-difluoro-5,7-dimethyl-4-bora-3a,4a-diaza-s-indacene-3-undecanoyl)-sn-glycero-3-phosphocholine, (manufacturer Molecular Probes) is used to characterize the enzymatic activity of endothelial lipase and the effect of inhibitors. Hydrolysis of the A1 ester linkage of this phospholipid by the enzyme liberates the fluorescent dye Bodipy which can be detected after separation by thin-layer chromatography on an HPTLC plate (silica gel 60, Merck) or directly in the reaction vessel by measuring the fluorescence.
The substrate solution is prepared by dissolving 100 μg of 1,2-bis(4,4-difluoro-5,7-dimethyl-4-bora-3a,4a-diaza-s-indacene-3-undecanoyl)-sn-glycero-3-phospho-choline (manufacturer Molecular Probes) in 100 μl of DMSO and taking up in 2.4 mg of tripalmitin (Sigma) in 393 μl of chloroform which comprises 20 mg/ml DOP-choline (1,2-dioleoyl-sn-glycero-3-phosphocholine). 39.3 μl of this lipid mixture are transferred into a fresh reaction vessel, and the solvent is evaporated off. The lipid mixture is dissolved in 4 ml of 200 mM TRIS-HCl, 150 mM sodium chloride, pH=7.4, by sonication twice. The subsequent enzymic reaction takes place at 37° C. for 90 minutes. For this purpose, 20 μl of the substrate solution are incubated with 2 μl of inhibitor of appropriate concentration (dissolved in 10% DMSO, using 10% strength DMSO solution for control) and 2 μl of enzyme solution (conditioned medium). The 4 μl of the assay mixture are loaded onto an HPTLC plate (silica gel 60, Merck), and the liberated fluorescent dye is separated for detection with an eluent (diethyl ether:petroleum benzine:acetic acid [78:22:1]). After evaporation of the eluent, the plate is read in a fluorescence scanner. An increased liberation of the fluorescent dye in the uninhibited reaction is to be observed as a measure of the enzymic activity.

For `CC(=O)c1ccc2c(c1)oc(=O)n2C(=O)NCc1ccccc1` [Example 1, 6-Acetyl-2-oxobenzooxazole-3-benzylcarboxamide], the IC50 came out at 0.13 µM.

With `CC(=O)c1ccc2c(c1)oc(=O)n2C(=O)NCc1ccccc1C` [Example 2, 6-Acetyl-2-oxobenzooxazole-3-(2-methylbenzyl)carboxamide], the IC50 came out at 0.51 µM. Take `CCCCCCNC(=O)n1c(=O)oc2cc(C(C)=O)ccc21` [Example 3, 6-Acetyl-2-oxobenzooxazole-3-hexylcarboxamide]: the IC50 is 0.06 µM. With `Cc1ccccc1CNC(=O)n1c(=O)oc2ccccc21` [Example 5, 2-Oxobenzooxazole-3-(2-methylbenzyl)carboxamide] the figure was 0.95 µM.

Regarding `O=C(NCc1ccccc1)n1c(=O)oc2ccc(Cl)cc21` [Example 7, 5-Chloro-2-oxobenzooxazole-3-benzylcarboxamide], the IC50 amounted to 0.23 µM.
